Experimental data taken from patent publication US10556865B2, “Synergistic herbicidal composition containing certain pyridine or pyrimidine carboxylic acids and certain cereal and rice herbicides” (Dow AgroSciences, LLC, priority 2007, dated 2020).
Values joined by “and” are separate entries in the source; they are usually repeats but may differ in a detail not shown here. Identical values can stand only once.

What was measured:
Type in all cases: in vivo
[1] = system: blackgrass (Alopecurus myosuroides L; ALOMY); assay: Postemergence herbicidal activity of mixtures in cereal crops (greenhouse, visual injury 0-100 percent after 20-22 days)
How it was run: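 Plants at second-third true leaf stage sprayed postemergence at 187 L/ha with compound and second cereal herbicide alone and combined; solvent blank controls. Visual injury scored 0-100% versus controls after 20-22 days; expected mixture effects by Colby's equation.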

[2] = system: Marsilea crenata PRESL (MASCR); assay: Herbicidal mixtures for weed control in transplanted paddy rice (in-water application, visual % injury)
How it was run: (§1)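 Paddy flood, greenhouse ~29/26° C; weeds at 2nd–3rd true leaf stage. Herbicide stocks (acetone/2.5% crop oil concentrate) injected into water; solvent blank controls. Visual % injury, 0–100, at 3 weeks.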

Cyperus species (CYPSS) = assay: as above; conditions: for % Injury CYPES Ob: CYPES = Cyperus esculentus
How it was run: as §1

[3] = system: Leptochloa chinensis (L.) NEES (LEFCH); assay: as above
How it was run: as §1

[4] = Compound A Methyl 17.5 g/ha alone
[5] = Compound A Methyl 35 g/ha alone
[6] = Quinclorac 140 g/ha alone (Compound A Methyl half)
[7] = Quinclorac 140 g/ha alone (Compound A TEA half)

COC(=O)c1nc(-c2ccc(Cl)c(OC)c2F)cc(N)c1Cl [Compound A Methyl, 4-amino-3-chloro-6-(4-chloro-2-fluoro-3-methoxyphenyl)pyridine-2-carboxylic acid methyl ester]
ALOMY Ob ([1]; 17.5 g/ha, Table 1): 0%
ALOMY Ob ([1]; 17.5 g/ha, Table 2): 0%
ALOMY Ob ([1]; 17.5 g/ha, Table 4): 0%
ALOMY Ob ([1]; 17.5 g/ha, Table 5): 0%
ALOMY Ob ([1]; 17.5 g/ha, Table 6): 0%
ALOMY Ob ([1]; 35 g/ha, Table 1): 20%
ALOMY Ob ([1]; 35 g/ha, Table 2): 20%
ALOMY Ob ([1]; 35 g/ha, Table 3): 30%
ALOMY Ob ([1]; 35 g/ha, Table 4): 30%
ALOMY Ob ([1]; 35 g/ha, Table 5): 30%
ALOMY Ob ([1]; 35 g/ha, Table 6): 30%
ALOMY Ob ([1]; 35 g/ha, Table 7): 3%
ALOMY Ob ([1]; 70 g/ha, Table 1): 50%
ALOMY Ob ([1]; 70 g/ha, Table 2): 50%
ALOMY Ob ([1]; 70 g/ha, Table 3): 30%
ALOMY Ob ([1]; 70 g/ha, Table 4): 30%
ALOMY Ob ([1]; 70 g/ha, Table 5): 30%
ALOMY Ob ([1]; 70 g/ha, Table 6): 30%
ALOMY Ob ([1]; 70 g/ha, Table 7): 20%
ALOMY Ob ([1]; 140 g/ha, Table 7): 47%
% Injury MASCR Ob [2, 4]: 0%
% Injury MASCR Ob [2, 5]: 50%
% Injury CYPES Ob (Cyperus species (CYPSS); [4]): 50%
% Injury CYPES Ob (Cyperus species (CYPSS); Compound A Methyl 35 g/ha alone (Table 112)): 60%
% Injury Ob (Cyperus species (CYPSS); CYPES, 4.38 g/ha alone): 0%
% Injury Ob (Cyperus species (CYPSS); CYPES, 8.75 g/ha alone): 15%
% Injury Ob ([3]; 8.75 g/ha alone): 0%
% Injury Ob ([3]; 17.5 g/ha alone): 0%
% Injury Ob ([3]; 35 g/ha alone): 0%
% Injury LEFCH Ob [3, 4]: 10%
% Injury LEFCH Ob [3, 5]: 20%

COc1c(Cl)ccc(-c2cc(N)c(Cl)c(C(=O)O)n2)c1F [Compound A TEA, 4-amino-3-chloro-6-(4-chloro-2-fluoro-3-methoxyphenyl)pyridine-2-carboxylic acid]
ALOMY Ob ([1]; 35 g/ha, Table 14): 0%
ALOMY Ob ([1]; 35 g/ha, Table 16): 0%
ALOMY Ob ([1]; 35 g/ha, Table 18): 0%
ALOMY Ob ([1]; 35 g/ha, Table 19): 0%
ALOMY Ob ([1]; 70 g/ha, Table 14): 0%
ALOMY Ob ([1]; 70 g/ha, Table 16): 0%
ALOMY Ob ([1]; 70 g/ha, Table 18): 0%
ALOMY Ob ([1]; 70 g/ha, Table 19): 0%
ALOMY Ob ([1]; 140 g/ha, Table 14): 3%
ALOMY Ob ([1]; 140 g/ha, Table 16): 0%
ALOMY Ob ([1]; 140 g/ha, Table 18): 3%
ALOMY Ob ([1]; 140 g/ha, Table 19): 0%
% Injury MASCR Ob ([2]; Compound A TEA 35 g/ha alone): 60%
% Injury CYPES Ob (Cyperus species (CYPSS); Compound A TEA 17.5 g/ha alone): 30%
% Injury CYPES Ob (Cyperus species (CYPSS); Compound A TEA 17.5 g/ha alone (Table 112)): 30%
% Injury CYPES Ob (Cyperus species (CYPSS); Compound A TEA 35 g/ha alone (Table 112)): 70%
% Injury Ob (Cyperus species (CYPSS); CYPES, 35 g/ha alone): 20% and 25%
% Injury Ob (Cyperus species (CYPSS); CYPES, 70 g/ha alone): 50%
% Injury Ob (Cyperus species (CYPSS); CYPIR, 35 g/ha alone): 10%
% Injury Ob (Cyperus species (CYPSS); CYPIR, 70 g/ha alone): 20%
% Injury Ob ([3]; 35 g/ha alone): 80%
% Injury Ob ([3]; 70 g/ha alone): 99%
% Injury LEFCH Ob ([3]; Compound A TEA 17.5 g/ha alone): 10%
% Injury LEFCH Ob ([3]; Compound A TEA 35 g/ha alone): 15%

COC(=O)c1nc(-c2ccc(Cl)c(OC)c2F)nc(N)c1Cl [Compound B Methyl, 6-amino-5-chloro-2-(4-chloro-2-fluoro-3-methoxyphenyl)pyrimidine-4-carboxylic acid methyl ester]
ALOMY Ob ([1]; 8.75 g/ha): 0%
ALOMY Ob ([1]; 8.75 g/ha, Table 20): 0%
ALOMY Ob ([1]; 8.75 g/ha, Table 22): 0%
ALOMY Ob ([1]; 17.5 g/ha): 10%
ALOMY Ob ([1]; 17.5 g/ha, Table 20): 10%
ALOMY Ob ([1]; 17.5 g/ha, Table 22): 10%
ALOMY Ob ([1]; 35 g/ha): 20%
ALOMY Ob ([1]; 35 g/ha, Table 20): 20%
ALOMY Ob ([1]; 35 g/ha, Table 22): 20%
ALOMY Ob ([1]; 70 g/ha): 40%
ALOMY Ob ([1]; 70 g/ha, Table 20): 40%
ALOMY Ob ([1]; 70 g/ha, Table 22): 40%

O=C(O)c1c(Cl)ccc2cc(Cl)cnc12 [Quinclorac]
% Injury MASCR Ob [2, 6]: 0%
% Injury MASCR Ob [2, 7]: 0%
% Injury CYPES Ob (Cyperus species (CYPSS); [6]): 0%
% Injury CYPES Ob (Cyperus species (CYPSS); [7]): 0%
% Injury LEFCH Ob [3, 6]: 0%
% Injury LEFCH Ob [3, 7]: 0%
